According to US20090054353A1, “MANNOSYL-1 PHOSPHATES, PREPARATION METHOD AND THERAPEUTIC USE, IN PARTICULAR AGAINST THE CDG-IA SYNDROME” (priority 2006, published 2009):

Columns and labels:
[1] = tested on: lymphoblasts of CDG-Ia diseases; assay: inhibition of incorporation of 2-[3H]mannose into cellular glycoconjugates ("radioactivity"); type: cell-based, human; conditions: dose of 500 μM; for Radioactivity (inhibition, by competition, of the binding of 2-[3H]mannose-1 phosphate): percentage relative to the controls, lymphoblasts of CDG-Ia, 5 trials per product; for effectiveness in inhibiting the incorporation of radioactive mannose into glycoproteins (in words): lymphoblasts, comparison between products
Protocol: (§1) The compounds of formula I, II and III were tested as prodrugs (i.e. as intracellular sources of Man-1 P), on the one hand, in order to evaluate their toxicity and, on the other hand, in order to assess their capacity to inhibit the incorporation of 2-[^3H]mannose into cellular glycoconjugates. Indeed, while they can generate Man-1 P in cells, it will be in competition with 2-[^3H]mannose-1 phosphate for entering the pathway for biosynthesis of glycoproteins (see Eklund, E. A., et al. cited above).
(§2) The products were tested (5 trials per product and per dose) on lymphoblasts of CDG-Ia diseases and their activities (“radioactivity”, i.e. inhibition, by competition, of the binding of 2-[^3H]mannose-1 phosphate; and cell “toxicity”) were assessed as a percentage relative to the controls (10 trials).

[2] = tested on: lymphoblasts of CDG-Ia diseases; assay: cell toxicity on lymphoblasts; type: cell-based; conditions: dose of 500 μM; for cell mortality / toxicity (in words): lymphoblasts, comparison with CP1, CP3 and CP6; for Toxicity (cell toxicity): percentage relative to the controls, lymphoblasts of CDG-Ia, 5 trials per product
Protocol: as §1, §2

CC(=O)OC[C@H]1O[C@H](OP(=O)(OCOC(=O)C(C)(C)C)OCOC(=O)C(C)(C)C)[C@@H](OC(C)=O)[C@@H](OC(C)=O)[C@@H]1OC(C)=O [CP1, di(pivaloyloxymethyl) (2,3,4,6-tetra-O-acetyl)-α-D-mannopyranosyl-1] phosphate]
Radioactivity (inhibition, by competition, of the binding of 2-[3H]mannose-1 phosphate) [1]: 92% | cell mortality / toxicity (in words) [2]: at least a doubling of cell mortality | Toxicity (cell toxicity) [2]: 210%

CC(C)(C)C(=O)OCOP(=O)(OCOC(=O)C(C)(C)C)O[C@H]1O[C@H](COC(=O)C(C)(C)C)[C@@H](OC(=O)C(C)(C)C)[C@H](OC(=O)C(C)(C)C)[C@@H]1OC(=O)C(C)(C)C [CP3, di(pivaloyloxymethyl) (2,3,4,6-tetra-O-pivaloyl-α-D-manno-pyranosyl-1) phosphate]
Radioactivity (inhibition, by competition, of the binding of 2-[3H]mannose-1 phosphate) [1]: 90% | cell mortality / toxicity (in words) [2]: at least a doubling of cell mortality | Toxicity (cell toxicity) [2]: 205%

CCOC(=O)OC[C@H]1O[C@H](OP(=O)(OCOC(C)=O)OCOC(C)=O)[C@@H](OC(=O)OCC)[C@@H](OC(=O)OCC)[C@@H]1OC(=O)OCC [CP6, di(acetyloxymethyl) (2,3,4,6-tetra-O-ethyloxycarbonyl)-α-D-manno-pyranosyl-1) phosphate]
Radioactivity (inhibition, by competition, of the binding of 2-[3H]mannose-1 phosphate) [1]: 91% | cell mortality / toxicity (in words) [2]: at least a doubling of cell mortality | Toxicity (cell toxicity) [2]: 201%

Benzyl di(2,3,4,6-tetra-O-isobutyryl-α-D-mannopyranosyl-1) phosphate [Ex. 12]
effectiveness in inhibiting the incorporation of radioactive mannose into glycoproteins (in words) [1]: less effective than CP1, CP3 and CP6 | Radioactivity (inhibition, by competition, of the binding of 2-[3H]mannose-1 phosphate) [1]: 25% | cell mortality / toxicity (in words) [2]: a lot less toxic | Toxicity (cell toxicity) [2]: 112%

Di(2,3,4,6-tetra-O-isobutyryl-α-D-mannopyranosyl-1) hydrogen phosphate [Ex. 4]
effectiveness in inhibiting the incorporation of radioactive mannose into glycoproteins (in words) [1]: therapeutically less effective than Ex. 5, Ex. 11, Ex. 12 and Ex. 13 | Radioactivity (inhibition, by competition, of the binding of 2-[3H]mannose-1 phosphate) [1]: 100% | cell mortality / toxicity (in words) [2]: less toxic | Toxicity (cell toxicity) [2]: 100%
